The values that follow come from patent publication US20060276464A1, “Diarylsulfone sulfonamides and use thereof” (Wyeth, priority 2005, published 2006).

The target of data set [1] is T1, SFRP-1 (Homo sapiens, UniProt Q8N474).
T1 sequence (Q8N474 32-314): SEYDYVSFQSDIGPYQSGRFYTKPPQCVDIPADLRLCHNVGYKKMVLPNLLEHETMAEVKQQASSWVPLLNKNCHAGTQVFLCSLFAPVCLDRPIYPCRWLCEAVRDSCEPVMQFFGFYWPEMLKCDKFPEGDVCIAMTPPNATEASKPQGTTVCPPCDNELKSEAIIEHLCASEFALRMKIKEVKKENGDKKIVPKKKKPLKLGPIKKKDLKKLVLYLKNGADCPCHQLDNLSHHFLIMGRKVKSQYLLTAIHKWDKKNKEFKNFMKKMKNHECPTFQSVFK
In words: Cell-based assay for in vitro measurement of SFRP-1/SARP2 antagonist activity (U2OS cells co-transfected with 16x TCF-tk-Luciferase reporter, Wnt and hSFRP-1).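 As to all read-outs here: U2OS cells co-transfected with a TCF-tk luciferase reporter, a Wnt vector, hSFRP-1 or empty vector and CMV-βgal, luciferase luminescence read in cell lysates alongside βgal activity.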 To be noted: for fold induction at 15 µM / fold induction at 10 µM: U2OS; for fold induction at 15 µM: single dose, luciferase reporter; for fold induction at 10 µM: read-out: Fold Induction with SFRP-1, U2OS cells, single dose 10 μM, luciferase reporter, fold induction over SFRP-1 control.

The target in data set [2] is T1, SFRP-1. In words: Fluorescence polarization binding assay (competitive displacement of a probe compound from SFRP-1).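 Also: test compound competes with a fluorescent probe held by SFRP-1, seen as a drop in probe anisotropy after incubation in darkness, with anisotropy as function of rising compound dose.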 To be noted: fluorescence anisotropy, 45 nM SFRP-1, 20 nM probe. Background: Fluorescence polarisation rises when a labelled molecule tumbles more slowly, as on binding a larger partner.
Setting [3] is: read-out: Fold Induction with SFRP-1, Conc 15 μM, fold induction over SFRP-1 control, cells with SFRP-1.
Where [4] appears, read: read-out: Fold Induction without SFRP-1, Conc 15 μM, cells without SFRP-1 (specificity control).

SMILES strings stand for the structures. Where two headings read alike, the source gives them in different places.

As a reminder, the melting point is the temperature of the solid-liquid transition. Regarding `CC(C)c1cc(C(C)C)c(S(=O)(=O)c2ccccc2)cc1S(=O)(=O)NC1Cc2ccccc2C1` [Example 618, N-(2,3-Dihydro-1H-inden-2-yl)-2,4-diisopropyl-5-(phenylsulfonyl)benzenesulfonamide], the melting point lay within 215 to 217 °C. On SFRP-1 [1] (setting [3]), the fold induction at 15 µM was found to be 2.8. For the same compound, on SFRP-1 [1] (setting [4]), the fold induction at 15 µM was found to be 1.1.
The matching figures for `CC(C)c1cc(C(C)C)c(S(=O)(=O)c2ccc(F)cc2)cc1S(=O)(=O)NCCc1ccccc1` [Example 619, 5-[(4-Fluorophenyl)sulfonyl]-2,4-diisopropyl-N-(2-phenylethyl)benzenesulfonamide]: 154 to 156 °C, 1.3 and 1.1.
The matching figures for `CC(C)c1cc(C(C)C)c(S(=O)(=O)c2ccc(F)cc2)cc1S(=O)(=O)NC1CCCC1` [Example 621, N-Cyclopentyl-5-[(4-fluorophenyl)sulfonyl]-2,4-diisopropylbenzenesulfonamide]: 202 to 205 °C, 1.2 and 1.
`CC(C)c1cc(C(C)C)c(S(=O)(=O)c2ccc(F)cc2)cc1S(=O)(=O)NCCc1ccncc1` [Example 633, 5-[(4-Fluorophenyl)sulfonyl]-2,4-diisopropyl-N-(2-pyridin-4-ylethyl)benzenesulfonamide]: the melting point was 210 to 211 °C. Also, at SFRP-1 [1] (setting [3]), the fold induction at 15 µM was 1.5. In addition, the fold induction at 15 µM at SFRP-1 [1] (setting [4]) was determined as 1.
The matching figures for `CC(C)c1cc(C(C)C)c(S(=O)(=O)c2ccc(F)cc2)cc1S(=O)(=O)NC1Cc2ccccc2C1` [Example 634, N-(2,3-Dihydro-1H-inden-2-yl)-5-[(4-fluorophenyl)sulfonyl]-2,4-diisopropylbenzenesulfonamide]: 202 to 204 °C, 3 and 1.
Compound `COc1ccc(S(=O)(=O)c2ccccc2)cc1S(=O)(=O)NCCc1cccnc1` [Example 678, 2-Methoxy-5-(phenylsulfonyl)-N-(2-pyridin-3-ylethyl)benzenesulfonamide] displayed a melting point of 181 to 183 °C. On SFRP-1 [1], the fold induction at 10 µM stood at 1.6.
The IC50 is the point on the concentration scale where inhibition reaches its midpoint. A high value points to weaker potency. What is called EC50 is the concentration that produces a half-maximal response. Read a low EC50 as an effect from little substance. In the case of `CC(C)NC(=O)CN1CCC(NS(=O)(=O)c2cc(S(=O)(=O)c3ccccc3)ccc2C(F)(F)F)CC1` [Example 1086, N-isopropyl-2-[4-({[5-(phenylsulfonyl)-2-(trifluoromethyl)phenyl]sulfonyl}amino)piperidin-1-yl]acetamide], on SFRP-1 [2], the 50% inhibitory concentration (IC50) was 270 nM. On SFRP-1 [1], this compound yielded an EC50 of 492 nM.
In the case of `O=C(CN1CCC(NS(=O)(=O)c2cc(S(=O)(=O)c3ccccc3)ccc2C(F)(F)F)CC1)N1CCOCC1` [Example 1087, N-[1-(2-morpholin-4-yl-2-oxoethyl)piperidin-4-yl]-5-(phenylsulfonyl)-2-(trifluoromethyl)benzenesulfonamide], at SFRP-1 [2], the concentration for half-maximal inhibition (IC50) was determined as 130 nM. The EC50 at SFRP-1 [1] was 746 nM.
The like results for `O=C(c1cscn1)N1CCC(NS(=O)(=O)c2cc(S(=O)(=O)c3ccccc3)ccc2C(F)(F)F)CC1` [Example 1090, 5-(phenylsulfonyl)-N-[1-(1,3-thiazol-4-ylcarbonyl)piperidin-4-yl]-2-(trifluoromethyl)benzenesulfonamide] were, in that order, 60 nM and 393 nM.
In turn, `O=S(=O)(NC1Cc2ccc(Br)cc2C1)c1cc(S(=O)(=O)c2ccccc2)ccc1C(F)(F)F` (stereo not drawn) [Example 1094, N-(5-bromo-2,3-dihydro-1H-inden-2-yl)-5-(phenylsulfonyl)-2-(trifluoromethyl)benzenesulfonamide] displayed a concentration for half-maximal inhibition (IC50) at SFRP-1 [2] of 110 nM. Moreover, the fold induction at 10 µM at SFRP-1 [1] was found to be 10.4.
`CC(C)(C)OC(=O)N1CCC[C@H]1C(=O)N1CCC(NS(=O)(=O)c2cc(S(=O)(=O)c3cccc(C#N)c3)ccc2C(F)(F)F)CC1` [Example 1095, tert-butyl (2S)-2-{[4-({[5-[(3-cyanophenyl)sulfonyl]-2-(trifluoromethyl)phenyl]sulfonyl}amino)piperidin-1-yl]carbonyl}pyrrolidine-1-carboxylate]: the IC50 on SFRP-1 [2] was 60 nM. The response at SFRP-1 [1] was half-maximal at 374 nM (EC50).
